The results in this text go back to patent US20040171592A1, “Organic nitrate-based compounds for the treatment of vasculopathies” (priority 2001, published 2004).

The subject of one series is gastric mucosa. The experiment in a line: Damages to the gastric mucosa (lesion score) in the rats of the restenosis model. The class given is in vivo, Male Wistar rats. The note with it: for Gastric damage Score: control score 2. As to the method: (§1) The rats were divided in the indicated groups (n. 12 animals each) and subjected to pharmacological treatment as described hereunder for the 14 days following the vascular damage. The compounds, dissolved in polyethylenglycol (PEG 400) were administered by os by gastric probe according to the following scheme:
(§2) The animals were sacrificed and the carotids removed. For each artery n. 6 sections having a thickness of 6 μm were isolated. Stomachs were removed and inspected for damages of the gastric mucosa, determining the areas of both bleeding lesions and non bleeding lesions. Said lesions were evaluated by a score according to known methods.

Series [1] concerns restenosis experimentally caused by balloon angioplasty. The experiment in a line: Restenosis induced in rats by balloon angioplasty (neointima/middle tunica thickness ratio). It counts as in vivo, Male Wistar rats. The note with it: for Restenosis %: 14 days after vascular damage, control = 100; for formation of the neointima tunica in the vascular wall / restenosis (in words): summary of Table 1, NO-aspirin low doses, Aspirin high doses. How it is done:
Efficacy of Aspirin and of 2-acetyloxybenzoic acid (3-nitrooxymethyl)phenyl ester (Formula XI), in an Experimental Model of Restenosis Induced in Rats
Male Wistar rats weighing 300-350 g were anaesthetized by intraperitoneal injection of ketamine (100 mg/kg) and xylazine (5 mg/kg) and subjected to angioplasty according to the procedure described by Indolfi et Al., Circulation, 1995, 92, 1230-1235, by using a little balloon catheter which was first introduced in the aortic arch through the right carotid, then swollen and then let pass three times forth and back in the duct lumen.
as §1
2 groups received NO-Aspirin at the dose of 30 and 100 mg/kg, respectively,
2 groups received Aspirin at the dose of 16 and 54 mg/kg, respectively,
1 group received NO-Ketorolac at the dose of 10 mg/Kg,
1 group received Ketorolac at the dose of 5 mg/Kg,
the control group received only the carrier (PEG 400, 0.2 ml/rat).
At the end of the treatment the animals were anaesthetized as described above and the carotids were first washed by infusion, through the left ventricle, of saline buffer phosphate (PBS, pH 7,2, 100 ml) then fixed with PBS containing paraformaldehyde (4%).
as §2
3 of the 6 sections of each artery were stained with hematoxylin and eosin to evidence different types of cells, the remaining 3 sections were stained first with aldehyde fuchsin and then with the Gieson solution to evidence the internal elastic lamina (IEL). The sections were photographed and the imagines were analyzed by an image analysis system (Qwin Lite, Leica, Milan).
The thicknesses respectively of the middle and neointima tunica, and of the duct wall were measured. The results reported in Table 1 are expressed as percentage of restenosis and have been calculated as a ratio between the thickness of the neointima tunica and that of the middle tunica […] measured in the sections obtained from the groups, assuming equal to 100 the N/M ratio of the control group.

Series [2] deals with oxidized LDL in the vascular wall. Kind of series: Vascular damage in carotids: oxidized LDL in the vascular wall (MDA2 antibody immunohistochemistry). The class given is in vivo, SP-SHR rats. The settings on record: control = 0. As to the method:
Evaluation of the Vascular Damage in Animals Treated With NO-ASA and Aspirin
In this experiment SP-SHR rats were used, as in the previous Example.
Three groups, each formed by 12 SP-SHR rats, 8 weeks old at the beginning of the experiment, received respectively for 6 weeks, together with the daily diet Aspirin (54 mg/kg) NO-ASA (30 mg/kg) (two groups); the control group (third group) received only the diet.
At the end of the treatment the animals were sacrificed by decapitation and the carotids were isolated. The ducts were opened and washed with cold sterile buffer phosphate (PBS) containing EDTA (2 mM) and maintained in cold PBS (cooled in ice bath) containing 2, [6]-di-tert-butyl-p-cresol (50 μM), aprotin (0.001%), EDTA (50 mM) and chloramphenicol (0.008%). The arteries were fixed with formalin (10%), then soaked in paraffin and then dissected. An aliquot of the obtained sections was incubated with MDA2 antibodies, which are directed against specific epitopes for oxidized LDL.
The data were calculated by considering the number of the sections, positive at the immunohistochemical test with MDA2 antibodies, detected in the groups of the treated animals and in the control group, respectively. The results are expressed as percentage of reduction of the oxidized LDL (low density lipoprotein) presence in the vascular wall taking as 0 the LDL value measured in the control group.

The subject of series [3] is SP-SHR rats (Stroke-Prone Spontaneously Hypertension Rats). The experiment in a line: Mortality/survival in SP-SHR rats under chronic treatment for 16 weeks. The class given is in vivo. The settings on record: controls 0. An excerpt:
Evaluation of the Mortality in SP-SHR Rats (Stroke-Prone Spontaneously Hypertension Rats) Treated With 2-acetyloxybenzoic acid (6-nitrooxymethyl)-2-methylpyridinyl hydrochloride ester (Formula XV), (NO-ASA) and Aspirin.
In this experiment SP-SHR rats were used which develop a severe hypertension, with a high incidence of spontaneous cerebral infarct. […] (Yamori Y. et al. Stroke 1976; 7: 46-53).
Three groups each formed by 12 SP-SHR rats, 8 weeks old at the beginning of the experiment, received for 16 weeks together with the daily diet Aspirin (54 mg/kg) NO-ASA (30 mg/kg); the control group received only the diet.
During the period of chronic treatment the percentage of animal survival was evaluated.

Setting [4] is: 30 mg/kg/die with the daily diet.
The mark [5] stands for this setting: 54 mg/kg/die with the daily diet.

Structures are written as SMILES. Marks after values point to notes of the source that are not given here.

`O=C(c1ccccc1)c1ccc2n1CCC2C(=O)O` (centres unmarked) [Ketorolac, ketorolac]: the “Gastric damage Score” value in the series on gastric mucosa (Dose 5 mg/Kg) turned out to be 50. The Restenosis % in series [1] (5 mg/Kg by os) was 100%.
Take `CC(=O)Oc1ccccc1C(=O)Oc1cccc(CO[N+](=O)[O-])c1` [NO-Aspirin, 2-(acetyloxy)benzoic acid 3-(nitrooxymethyl)phenyl ester]: the “Gastric damage Score” value with gastric mucosa (Dose 166 mg/Kg) came to 2; in the series with gastric mucosa (Dose 249 mg/Kg), 4. Besides, the Restenosis % is recorded as 62.5* % in series [1] (30 mg/Kg by os) and 31* % in series [1] (100 mg/Kg by os). Besides, the “formation of the neointima tunica in the vascular wall / restenosis (in words)” value in series [1] is “already significantly reduced”.
On to `CC(=O)Oc1ccccc1C(=O)OCc1cccc(CO[N+](=O)[O-])n1.Cl` [NO-ASA, 2-(acetyloxy)benzoic acid, 6-(nitrooxymethyl)-2-methyl pyridinyl hydrochloride ester], for which the “reduction % of the presence of oxidized LDL” value in series [2] (30 mg/kg with the daily diet for 6 weeks) was 74%. For the same compound, in series [3] (setting [4]), the “% of survival, XVIth week” value is 100% and the “% of survival, Xth week” value is 100%.
Take `CC(=O)Oc1ccccc1C(=O)O` [Aspirin, aspirin]: the results for the “Gastric damage Score” value in the series on gastric mucosa (Dose 50 mg/Kg) and in the series on gastric mucosa (Dose 100 mg/Kg) were 22* and 42*, respectively. Moreover, in the series on gastric mucosa (rat, in vivo), the “gastric toxicity / lesions to the gastric mucosa (in words)” value is listed as “produce lesions to the gastric mucosa”. For the same compound, the Restenosis % was 100% in series [1] (16 mg/Kg by os) and 55* % in series [1] (54 mg/Kg by os). The “formation of the neointima tunica in the vascular wall / restenosis (in words)” value in series [1] was “small reduction of the restenosis”. For the same compound, the “reduction % of the presence of oxidized LDL” value in series [2] (54 mg/kg with the daily diet for 6 weeks) came to 19%. Further, the “% of survival, XVIth week” value in series [3] (setting [5]) is listed as 50%. Further, in series [3] (setting [5]), the “% of survival, Xth week” value amounted to 100%.
As for `O=C(c1ccccc1)c1ccc2n1CCC2C(=O)OCCCCO[N+](=O)[O-]` (centres unmarked) [NO Ketorolac, 5-benzoyl-2,3-dihydro-1H-pyrrolizin-1-carboxylic acid (4-nitrooxy)butyl ester], the “Gastric damage Score” value in the series with gastric mucosa (Dose 10 mg/Kg) was determined as 20. For the same compound, the “gastric toxicity / lesions to the gastric mucosa (in words)” value in the series on gastric mucosa (summary of Table 1, Aspirin high doses) was “shows a gastric toxicity”. For the same compound, the Restenosis % in series [1] (10 mg/Kg by os) is listed as 90%. Further, the “formation of the neointima tunica in the vascular wall / restenosis (in words)” value in series [1] is “not very effective”.
